Tested on in one series: not given
Test: not given
Settings: not given
What is called melting point is the temperature of the solid-liquid transition. As to `O=C(NOCc1ccccc1)c1ccc(N2CCCC2)cn1`, the melting point is 165 to 170 °C. `Nc1nc2sc(-c3ccccc3)cc2c(=O)[nH]1`: the melting point was > 360 °C.

For the molecule `Cc1c(-c2cc(C#N)ccc2Cl)sc2nc(N)[nH]c(=O)c12`, the melting point is > 350 °C. On the same count and under the same terms, then `Cc1c(-c2cccc(C#N)c2F)sc2nc(N)[nH]c(=O)c12`, with 350 to 370 °C; and `Cc1c(-c2cccc(CN(C)C)c2)sc2nc(N)[nH]c(=O)c12`, with 207 to 212 °C.

In the next series the test system is influenza A virus A/Aichi/2/68 (H3N2). The series can be described thus: Cytopathic effect (CPE) assay H3N2. Particulars: Influenza A virus, H3N2, activity conc 1 (μM per method); read-out: CPE H3N2 reduction (%). The format is cell-based, influenza A virus (H3N2) on MDCK cells. As to the method:
A possible measure of the […] antiviral activity of the compounds having the formula I or II is the CPE assay disclosed herein. […] In this connection, the reduction in the virus-mediated cytopathic effect (CPE) upon treatment with the compounds was calculated as follows: The cell viability of infected-treated and uninfected-treated cells was determined using an ATP-based cell viability assay (Promega). The response in relative luminescent units (RLU) of infected-untreated samples was subtracted from the response (RLU) of the infected-treated samples and then normalized to the viability of the corresponding uninfected sample resulting in % CPE reduction.
The influenza A virus (IAV) was obtained from American Tissue Culture Collection (A/Aichi/2/68 (H3N2); VR-547). Virus stocks were prepared by propagation of virus on Mardin-Darby canine kidney (MDCK; ATCC CCL-34) cells and infectious titres of virus stocks were determined by the 50% tissue culture infective dose (TCID50) analysis as described in Reed, L. J., and H. Muench. 1938, Am. J. Hyg. 27:493-497.
MDCK cells were seeded in 96-well plates at 2×10^4 cells/well using DMEM/Ham's F-12 (1:1) medium containing 10% foetal bovine serum (FBS), 2 mM L-glutamine and 1 antibiotics (all from PAA). Until infection the cells were incubated for 5 hrs at 37° C., 5.0 CO2 to form a ˜80% confluent monolayer on the bottom of the well. Each test compound was dissolved in DMSO and generally tested at 25 μM and 250 μM. In those cases where the compounds were not soluble at that concentration they were tested at the highest soluble concentration. The compounds were diluted in infection medium (DMEM/Ham's F-12 (1:1) containing 5 μg/ml trypsin, and 1% antibiotics) for a final plate well DMSO concentration of 1%. The virus stock was diluted in infection medium (DMEM/Ham's F-12 (1:1) containing 5 μg/ml Trypsin, 1% DMSO, and 1% antibiotics) to a theoretical multiplicity of infection (MOI) of 0.05.
After removal of the culture medium and one washing step with PBS, virus and compound were added together to the cells. In the wells used for cytotoxicity determination (i.e. in the absence of viral infection), no virus suspension was added. Instead, infection medium was added. Each treatment was conducted in two replicates. After incubation at 37° C., 5% CO2 for 48 hrs, each well was observed microscopically for apparent cytotoxicity, precipitate formation, or other notable abnormalities. Then, cell viability was determined using CellTiter-Glo luminescent cell viability assay (Promega). The supernatant was removed carefully and 65 μl of the reconstituted reagent were added to each well and incubated with gentle shaking for 15 min at room temperature. Then, 60 μl of the solution was transferred to an opaque plate and luminescence (RLU) was measured using Synergy HT plate reader (Biotek).
Relative cell viability values of uninfected-treated versus uninfected-untreated cells were used to evaluate cytotoxicity of the compounds. Substances with a relative viability below 80% at the tested concentration were regarded as cytotoxic and retested at lower concentrations.
Reduction in the virus-mediated cytopathic effect (CPE) upon treatment with the compounds was calculated as follows: The response (RLU) of infected-untreated samples was subtracted from the response (RLU) of the infected-treated samples and then normalized to the viability of the corresponding uninfected sample resulting in % CPE reduction.
Consider `CCONC(=O)c1cc(NCCCc2cccc(Cl)c2)ccn1` [drawing 168], for which the inhibition at 1 µM is -0.3%.

Regarding `O=C(c1cc(-c2ccccc2)ccn1)N(O)Cc1ccc(F)cc1` [drawing 223], the inhibition at 1 µM is -3.2%. Turning to `O=C(c1cc(C2=CCCCC2)ccn1)N(O)Cc1ccccc1` [drawing 257], the inhibition at 1 µM amounted to 3.4%.

The series is the same for the next values; noted with them: Influenza A virus, H3N2, activity conc 2 (μM per method); read-out: CPE H3N2 reduction (%).
Regarding `O=C(NOCc1ccccc1)c1ccc(-c2ccccc2)cn1` [drawing 172], the inhibition at 2 µM was -4%.

Take `O=C(c1cc(N2CCCCC2)ccn1)N(O)CCCc1ccccc1` [drawing 203]: the inhibition at 2 µM amounted to 7.7%. For the molecule `CC(C)c1cccc(-c2ccc(C(=O)NO)nc2)c1` [drawing 205], the inhibition at 2 µM was -2.1%.

For `CC(C)c1cccc(-c2ccc(C(=O)N(O)CCc3ccccc3)nc2)c1` [drawing 207], the inhibition at 2 µM is 2.1%. For `O=C(c1cc(-c2ccc(Cl)cc2)ccn1)N(O)Cc1ccccc1` [drawing 219], the inhibition at 2 µM is -6.7%.

The same series, now with this note: Influenza A virus, H3N2, activity conc 5 (μM per method); read-out: CPE H3N2 reduction (%).
For the molecule `CCONC(=O)c1ccc(-c2ccccc2)cn1` [drawing 173], the inhibition at 5 µM is -3%. Consider `O=C(c1ccc(N2CCCC2)cn1)N(Cc1ccccc1)OCc1ccccc1` [drawing 178], for which the inhibition at 5 µM was -2.7%.

In the case of `O=C(c1cc2ccccc2cn1)N(Cc1ccccc1)OCc1ccccc1` [drawing 179], the inhibition at 5 µM was 1.3%.

For `O=C(NOCc1ccccc1)c1cc2ccccc2cn1` [drawing 182], the inhibition at 5 µM was -1.5%.

For `O=C(c1cc(N2CCCCC2)ccn1)N(O)Cc1ccccc1` [drawing 183], the inhibition at 5 µM amounted to 1.1%. Consider `O=C(NOCc1ccccc1)c1cc(N2CCCCC2)ccn1` [drawing 187], for which the inhibition at 5 µM was determined as 1%. In the case of `O=C(c1ccc(N2CCCCC2)cn1)N(O)Cc1ccccc1` [drawing 208], the inhibition at 5 µM was -3.4%. Regarding `O=C(c1cc(-c2ccc(Cl)c(Cl)c2)ccn1)N(O)Cc1ccccc1` [drawing 220], the inhibition at 5 µM was determined as 8.1%. For `NC(=O)c1cccc(-c2ccnc(C(=O)N(O)Cc3ccccc3)c2)c1` [drawing 221], the inhibition at 5 µM is -2.7%. Turning to `CC(C)(C)OC(=O)N1CC=C(c2ccnc(C(=O)N(O)Cc3ccccc3)c2)CC1` [drawing 229], the inhibition at 5 µM is 1.2%. Take `NC(=O)c1ccc(-c2ccnc(C(=O)N(O)Cc3ccccc3)c2)cc1` [drawing 232]: the inhibition at 5 µM was -2.5%.

For `CN(C)S(=O)(=O)c1cccc(-c2ccnc(C(=O)N(O)Cc3ccccc3)c2)c1` [drawing 233], the inhibition at 5 µM is -1.8%. In the case of `O=C(c1cc(-c2cccc(CO)c2)ccn1)N(O)Cc1ccccc1` [drawing 240], the inhibition at 5 µM stood at 7.7%. Take `CC(C)(C)OC(=O)N1CCC=C(c2ccnc(C(=O)N(O)Cc3ccccc3)c2)C1` [drawing 256]: the inhibition at 5 µM turned out to be 10.2%. For the molecule `O=C(c1cc(C2CCCCC2)ccn1)N(O)Cc1ccccc1` [drawing 258], the inhibition at 5 µM is -0.5%.

Still in this series, the particulars now being: Influenza A virus, H3N2, activity conc 10 (μM per method); read-out: CPE H3N2 reduction (%).
In the case of `Cc1cccc(-c2ccc(C(=O)N(O)Cc3ccccc3)nc2)c1` [drawing 181], the inhibition at 10 µM came to 15.5%. Still for that read-out and setting: then `O=C(c1cc(-c2ccccc2)ccn1)N(O)Cc1ccccc1` [drawing 211], with -9.3%.

Staying with this series, now noted: Influenza A virus, H3N2, activity conc 12 (μM per method); read-out: CPE H3N2 reduction (%).
With `O=C(c1ccc(-c2ccccc2)cn1)N(O)Cc1ccccc1` [drawing 215], the inhibition at 12 µM turned out to be 13.4%. `O=C(NO)c1ccc(-c2ccccc2)cn1` [drawing 216]: the inhibition at 12 µM turned out to be 21.7%.

The series is the same for the next values; noted with them: Influenza A virus, H3N2, activity conc 20 (μM per method); read-out: CPE H3N2 reduction (%).
As to `O=C(NOCc1ccccc1)c1ccc(N2CCCC2)cn1` [drawing 177], the inhibition at 20 µM is -8.7%.

Turning to `O=C(c1cc2ccccc2cn1)N(O)CCc1ccccc1` [drawing 202], the inhibition at 20 µM was -1.8%.

The same series, now with this note: Influenza A virus, H3N2, activity conc 25 (μM per method); read-out: CPE H3N2 reduction (%).
Take `O=C(c1ccc(N2CCCC2)cn1)N(O)Cc1ccccc1` [drawing 180]: the inhibition at 25 µM came to 1%.

Staying with this series, now noted: Influenza A virus, H3N2, activity conc 50 (μM per method); read-out: CPE H3N2 reduction (%).
As for `O=C(NOC(=O)c1cc(N2CCCCC2)ccn1)c1cc(N2CCCCC2)ccn1` [drawing 160], the inhibition at 50 µM is 29%.

With `Cc1cccc(C(=O)NOCc2ccccc2)n1` [drawing 170], the inhibition at 50 µM was -2.7%. Turning to `CN(OCc1ccccc1)C(=O)c1cc2ccccc2cn1` [drawing 184], the inhibition at 50 µM is 0.6%. For `CN(O)C(=O)c1cc2ccccc2cn1` [drawing 199], the inhibition at 50 µM was -0.6%. Consider `O=C(c1cc2ccccc2cn1)N(O)Cc1ccccc1` [drawing 200], for which the inhibition at 50 µM is 34.2%. The same measure, in the same setting: then `O=C(NO)c1cc2ccccc2cn1` [drawing 201], with 94.3%. As for `O=C(NO)c1ccc(N2CCCC2)cn1` [drawing 204], the inhibition at 50 µM is -4.3%. Take `O=C(c1cc(NS(=O)(=O)Cc2ccccc2)ccn1)N(O)Cc1ccccc1` [drawing 209]: the inhibition at 50 µM is 6.2%. With `O=C(NO)c1cc(N2CCOCC2)ccn1` [drawing 212], the inhibition at 50 µM was -7.1%. As for `O=C(c1cc(NS(=O)(=O)c2ccccc2)ccn1)N(O)Cc1ccccc1` [drawing 213], the inhibition at 50 µM is -5.2%.

Turning to `C[C@@H]1CN(c2ccnc(C(=O)N(O)Cc3ccccc3)c2)C[C@H](C)O1` [drawing 218], the inhibition at 50 µM was determined as 10.5%. Consider `O=C(c1cc(N2CCCC(F)(F)C2)ccn1)N(O)Cc1ccccc1` [drawing 224], for which the inhibition at 50 µM stood at 8.9%. With `O=C(c1cc(N2CCC(N3CCCC3)CC2)ccn1)N(O)Cc1ccccc1` [drawing 226], the inhibition at 50 µM was 10.7%.

Consider `CC(C)(C)OC(=O)NC1CCN(c2ccnc(C(=O)N(O)Cc3ccccc3)c2)CC1` [drawing 227], for which the inhibition at 50 µM worked out at 8.3%. Same read-out and setting: then `CN(C)CCNC(=O)c1cccc(-c2ccnc(C(=O)N(O)Cc3ccccc3)c2)c1` [drawing 230], with 8.9%; and `O=C(c1cc(N2CCC3(CC2)OCCO3)ccn1)N(O)Cc1ccccc1` [drawing 235], with 9.5%. `CN1CC=C(c2ccnc(C(=O)N(O)Cc3ccccc3)c2)CC1` [drawing 260]: the inhibition at 50 µM amounted to 10.6%.

For the molecule `O=C(c1cc(C2=CC3CCC(C2)N3)ccn1)N(O)Cc1ccccc1` (stereo not shown) [drawing 283], the inhibition at 50 µM was 5.49%.

Staying with this series, now noted: Influenza A virus, H3N2; read-out: CPE H3N2 IC50.
One may read the IC50 as the concentration at which inhibition is half-maximal. On to `O=C(NOC(=O)c1cc(N2CCCCC2)ccn1)c1cc(N2CCCCC2)ccn1` [drawing 160], for which the IC50 came to 37 µM.

In the case of `O=C(NO)c1cc2ccccc2cn1` [drawing 201], the 50% inhibitory concentration (IC50) was found to be 45 µM.

The same series, now with this note: activity conc 5 (μM per method).
Take `O=C(c1cc(N2CCCCC2)ccn1)N(O)Cc1ccccc1` [drawing 197]: the “CPE H3N2 reduction (%)” value is 1.1%.

Staying with this series, now noted: activity conc 50 (μM per method).
For the molecule `O=C(c1cc(N2CCOCC2)ccn1)N(O)Cc1ccccc1` [drawing 241], the “CPE H3N2 reduction (%)” value is listed as −3.4%.

Regarding `Cl.O=C(c1cc(N2CCOCC2)ccn1)N(O)Cc1ccccc1` [drawing 242], the “CPE H3N2 reduction (%)” value came to 6.3%. As for `Cl.O=C(NO)c1cc(NS(=O)(=O)Cc2cccc(Cl)c2)ccn1` [drawing 267], the “CPE H3N2 reduction (%)” value amounted to 5.9%. In the case of `Cl.O=C(NO)c1cc(NS(=O)(=O)Cc2cc(Cl)cc(Cl)c2)ccn1` [drawing 276], the “CPE H3N2 reduction (%)” value was determined as 9.3%.

For the molecule `Cl.O=C(NO)c1cc(NS(=O)(=O)Cc2cccc(Cl)c2)ccn1` [drawing 288], the “CPE H3N2 reduction (%)” value is 2.29%.
